Earlier results on 78 compounds are cited in PMC6311893, “Computational prediction of plasma protein binding of cyclic peptides from small molecule experimental data using sparse modeling techniques” (BMC Bioinformatics, 2018).

Read-outs that look alike come from different tables or passages of the source.

This data set relates to plasma protein. The settings on record: cited from earlier work.
The mark [1] stands for this setting: fraction bound to plasma protein, small molecule dataset, sheet 1-SM, ref Ingle et al.
The mark [2] stands for this setting: fraction bound to plasma protein, small molecule dataset, sheet 1-SM (Set Dte = test, Dtr = training), ref Ingle et al.
Setting [3] is: fraction bound to plasma protein, small molecule dataset, sheet 1-SM, Set Dtr, ref Ingle et al.

Turning to `CC/C(=C(\c1ccccc1)c1ccc(OCCN(C)C)cc1)c1ccccc1` [tamoxifen], the “PPB (fb)” value under setting [1] is reported as 0.99.
As for `CC(Oc1ccc2ccccc2c1)C(=O)NC1C(=O)N2C1SC(C)(C)C2C(=O)O` (stereo not drawn) [penicillin69], under setting [1], the “PPB (fb)” value was 0.95.
Turning to `CCNCC(O)c1cccc(O)c1` (stereo not drawn) [Etilefrine], the “PPB (fb)” value under setting [2] is 0.24.
In the case of `O=C1CN=C(c2ccccc2Cl)c2cc([N+](=O)[O-])ccc2N1` [Clonazepam], the “PPB (fb)” value (plasma) was 0.85.
In the case of `O=C1NCCN1CCN1CCC(c2cn(-c3ccc(F)cc3)c3ccc(Cl)cc23)CC1` [sertindole], the “PPB (fb)” value under setting [1] is listed as 0.99.
For `CCOC(=O)c1ncn2c1CN(C)C(=O)c1cc(F)ccc1-2` [Flumazenil], under setting [3], the “PPB (fb)” value is on record as 0.46.
As to `CC(Oc1ccc(Cl)cc1)C(=O)NC1C(=O)N2C1SC(C)(C)C2C(=O)O` (stereo not drawn) [penicillin42], the “PPB (fb)” value under setting [1] was 0.92.
`Cc1c(O)cccc1C(=O)N[C@@H](CSc1ccccc1)[C@H](O)CN1C[C@H]2CCCC[C@H]2C[C@H]1C(=O)NC(C)(C)C` [nelfinavir]: the “PPB (fb)” value under setting [1] is given as 0.99.
Regarding `CC(C)(C)NCC(O)COc1cccc2c1SCCC2` (stereo not drawn) [tertatolol], the “PPB (fb)” value under setting [2] is reported as 0.95.
Regarding `CO/N=C(\C(=O)N[C@@H]1C(=O)N2C(C(=O)O)=CCS[C@H]12)c1csc(N)n1` [Ceftizoxime], under setting [3], the “PPB (fb)” value is listed as 0.28.
As for `CN(C)CCOC1=Cc2ccccc2Sc2ccc(Cl)cc21` [zotepine], under setting [2], the “PPB (fb)” value is listed as 0.97.
As to `CCOC(=O)Nc1ccc(NCc2ccc(F)cc2)nc1N` [Flupirtine], under setting [3], the “PPB (fb)” value is listed as 0.82.
Consider `C#C[C@]1(O)CC[C@H]2[C@@H]3[C@H](C)CC4=C(CCC(=O)C4)[C@H]3CC[C@@]21C` [tibolone], for which the “PPB (fb)” value under setting [1] is 0.96.
Consider `CS(=O)(=O)OCCCCOS(C)(=O)=O` [Busulphan], for which, under setting [3], the “PPB (fb)” value was 0.04.
`O=[N+]([O-])O[C@H]1CO[C@H]2[C@@H]1OC[C@H]2O[N+](=O)[O-]` [Isosorbide Dinitrate]: the “PPB (fb)” value (plasma) was 0.29.
Consider `CCCN(CC)C(CC)C(=O)Nc1c(C)cccc1C` (stereo not drawn) [etidocaine], for which, under setting [1], the “PPB (fb)” value is recorded as 0.94.
For `CC1(C)SC2C(NC(=O)c3ccc4ccccc4c3)C(=O)N2C1C(=O)O` (stereo not drawn) [penicillin65], the “PPB (fb)” value under setting [1] is listed as 0.96.
Take `C[C@]1(Cn2ccnn2)[C@H](C(=O)O)N2C(=O)C[C@H]2S1(=O)=O` [tazobactam]: the “PPB (fb)” value under setting [1] was 0.23.
On to `O=C1OC(c2ccc(O)c(S(=O)(=O)O)c2)(c2ccc(O)c(S(=O)(=O)O)c2)c2c(Br)c(Br)c(Br)c(Br)c21` [sulfobromophthalein], for which the “PPB (fb)” value (plasma) is 0.99.
Consider `CC(C)CC(N(C)C)C1(c2ccc(Cl)cc2)CCC1` (stereo not drawn) [sibutramine], for which the “PPB (fb)” value (plasma) is listed as 0.95.
Regarding `Cn1cc[nH]c1=S` [thiamazole], under setting [2], the “PPB (fb)” value was 0.
With quinagolide, under “plasma”, the “PPB (fb)” value was 0.9.
For the compound Nicardipine, where the note is “plasma”, the “PPB (fb)” value is reported as 0.98.
Consider `CC1(C)C[C@@H]1C(=O)N/C(=C\CCCCSC[C@H](N)C(=O)O)C(=O)O` [Cilastatin], for which the “PPB (fb)” value (plasma) is on record as 0.37.
Consider `CCN1CCN(C(=O)N[C@@H](C(=O)N[C@@H]2C(=O)N3[C@@H]2SC(C)(C)[C@@H]3C(=O)O)c2ccccc2)C(=O)C1=O` [Piperacillin], for which, for the setting “plasma”, the “PPB (fb)” value is recorded as 0.4.
For the compound `Cc1ccc(/C(=C\CN2CCCC2)c2ccccn2)cc1` [triprolidine], the “PPB (fb)” value under setting [3] is reported as 0.9.
With `CC(Oc1ccc(F)cc1)C(=O)NC1C(=O)N2C1SC(C)(C)C2C(=O)O` (stereo not drawn) [penicillin62], the “PPB (fb)” value under setting [1] was 0.8.
Consider `O=P(O)(O)C(Cl)(Cl)P(=O)(O)O` [clodronic acid], for which the “PPB (fb)” value under setting [2] is 0.36.
For `CC(C)(O)C(=O)Nc1ccc([N+](=O)[O-])c(C(F)(F)F)c1` [hydroxyflutamide], the “PPB (fb)” value under setting [1] was 0.93.
Turning to `CCO` [ethanol], where the note is “plasma”, the “PPB (fb)” value was 0.
Regarding `Cn1nnc2c(C(N)=O)ncn2c1=O` [temozolomide], the “PPB (fb)” value under setting [1] is given as 0.15.
With `COc1ccccc1N1CCN(CCCNc2cc(=O)n(C)c(=O)n2C)CC1` [urapidil], the “PPB (fb)” value under setting [3] is given as 0.8.
For `COc1c(C)nc2ccccc2c1C(=O)NC1C(=O)N2C1SC(C)(C)C2C(=O)O` (stereo not drawn) [penicillin77], under setting [1], the “PPB (fb)” value is reported as 0.62.
`CN[C@@H]1CCc2[nH]c3ccc(C(N)=O)cc3c2C1` [Frovatriptan]: the “PPB (fb)” value under setting [2] was 0.15.
`CC(=O)[C@H]1CC[C@H]2[C@@H]3CC[C@@H]4C[C@H](O)CC[C@]4(C)[C@H]3CC[C@]12C` [Eltanolone]: the “PPB (fb)” value (plasma) was 0.99.
Turning to `CCC[S+]([O-])c1ccc2[nH]c(NC(=O)OC)nc2c1` (stereo not drawn) [albendazole sulfoxide], the “PPB (fb)” value (plasma) is reported as 0.7.
For `CNC(=C[N+](=O)[O-])NCCSCc1ccc(CN(C)C)o1` [Ranitidine], the “PPB (fb)” value under setting [2] was 0.1.
Consider `COc1ccc(CCNCC(O)COc2cccc(C)c2)cc1OC` (stereo not drawn) [Bevantolol], for which the “PPB (fb)” value under setting [2] was 0.97.
On to `CCCCN1C[C@H](O)[C@@H](O)[C@H](O)[C@H]1CO` [Miglustat], for which the “PPB (fb)” value under setting [1] was 0.01.
Turning to `CC(=O)OCC1=C(C(=O)O)N2C(=O)[C@@H](NC(=O)CC#N)[C@H]2SC1` [cephacetrile], the “PPB (fb)” value under setting [2] was 0.2.
Consider `CC(=O)[C@]1(O)Cc2c(O)c3c(c(O)c2[C@@H](O[C@H]2C[C@H](N)[C@H](O)[C@H](C)O2)C1)C(=O)c1ccccc1C3=O` [Idarubicin], for which, under setting [2], the “PPB (fb)” value is recorded as 0.95.
Regarding `O=C(O)[C@H]1O[C@@H](Oc2cc3oc(-c4ccccc4)cc(=O)c3c(O)c2O)[C@H](O)[C@@H](O)[C@@H]1O` [baicalin], the “PPB (fb)” value under setting [2] was 0.66.
Turning to `Nc1ccc(S(=O)(=O)Nc2ccnn2-c2ccccc2)cc1` [sulfaphenazole], the “PPB (fb)” value under setting [2] is 0.95.
Turning to `COc1ccc2[nH]c([S+]([O-])Cc3ncc(C)c(OC)c3C)nc2c1` (stereo not drawn) [Omeprazole], the “PPB (fb)” value under setting [2] is recorded as 0.96.
Regarding `C=CCC1(C(C)C)C(=O)NC(=O)NC1=O` [aprobarbital], the “PPB (fb)” value (plasma) is recorded as 0.62.
Turning to `C[C@H]1[C@H](OC(=O)CCC(=O)O)O[C@@H]2O[C@@]3(C)CC[C@H]4[C@H](C)CC[C@@H]1[C@@]24OO3` [Artesunate], under setting [3], the “PPB (fb)” value is on record as 0.75.
`C[C@@](Cc1ccc(O)c(O)c1)(NN)C(=O)O` [carbidopa]: under setting [2], the “PPB (fb)” value is reported as 0.36.
For the compound `CC(C)n1c(/C=C/C(O)CC(O)CC(=O)O)c(-c2ccc(F)cc2)c2ccccc21` (stereo not drawn) [Fluvastatin], under setting [3], the “PPB (fb)” value was 0.99.
Turning to `NC(=O)C[S+]([O-])C(c1ccccc1)c1ccccc1` (stereo not drawn) [modafinil], the “PPB (fb)” value (plasma) is recorded as 0.6.
`ClC1=C(Cl)[C@]2(Cl)[C@@H]3[C@@H]4C[C@@H]([C@H]5O[C@@H]45)[C@@H]3[C@@]1(Cl)C2(Cl)Cl` [dieldrin]: the “PPB (fb)” value (plasma) is listed as 0.99.
As to `CC1(C)SC2C(NC(=O)C(Oc3ccccc3)c3ccccc3)C(=O)N2C1C(=O)O` (stereo not drawn) [penicillin51], the “PPB (fb)” value under setting [1] is 0.97.
For the compound `CC(Cc1ccc(O)cc1)NCC(O)c1cc(O)cc(O)c1` (stereo not drawn) [Fenoterol], the “PPB (fb)” value (plasma) was 0.47.
Consider `N[C@@H](Cc1ccc(N(CCCl)CCCl)cc1)C(=O)O` [Melphalan], for which the “PPB (fb)” value (plasma) is reported as 0.88.
For the compound `COCCOc1c(OC)cc(Cc2cnc(N)nc2N)cc1OC` [tetroxoprim], the “PPB (fb)” value under setting [1] is reported as 0.15.
Take `CC(C(=O)O)c1ccc(CC2CCCC2=O)cc1` (stereo not drawn) [loxoprofen]: the “PPB (fb)” value under setting [1] is recorded as 0.96.
Take `NCCCC(N)(C(=O)O)C(F)F` (stereo not drawn) [eflornithine]: the “PPB (fb)” value under setting [2] was 0.
For `Oc1cc(O)c2c(c1)O[C@H](c1ccc(O)c(O)c1)[C@H](O)[C@H]2c1c(O)cc(O)c2c1O[C@H](c1ccc(O)c(O)c1)[C@@H](O)C2` [procyanidin B1], the “PPB (fb)” value (plasma) is recorded as 0.73.
Turning to `COC(=O)CCc1ccc(OCC(O)CNC(C)C)cc1` (stereo not drawn) [Esmolol], under setting [3], the “PPB (fb)” value is on record as 0.48.
For `CN1CCN(C(c2ccccc2)c2ccccc2)CC1` [cyclizine], the “PPB (fb)” value under setting [2] is given as 0.6.
Regarding `CN1CCN(C(c2ccccc2)c2ccc(Cl)cc2)CC1` (stereo not drawn) [chlorcyclizine], under setting [2], the “PPB (fb)” value is given as 0.87.
In the case of `O=C(CCCN1CCC(O)(c2ccc(Cl)cc2)CC1)c1ccc(F)cc1` [Haloperidol], the “PPB (fb)” value under setting [3] is 0.92.
For the compound `NC(=O)N1c2ccccc2CC(=O)c2ccccc21` [oxcarbazepine], the “PPB (fb)” value under setting [1] is listed as 0.45.
Consider `CC1(C)SC2C(NC(=O)C(N=[N+]=[N-])c3ccccc3)C(=O)N2C1C(=O)O` (stereo not drawn) [azidocillin], for which, under setting [2], the “PPB (fb)” value is 0.8.
With `CC(C)(Oc1ccc(CCNC(=O)c2ccc(Cl)cc2)cc1)C(=O)O` [bezafibrate], the “PPB (fb)” value under setting [2] is given as 0.95.
On to `Nc1cc(-c2ccncc2)c[nH]c1=O` [Amrinone], for which the “PPB (fb)” value under setting [3] is 0.11.
Consider `CCn1cc(C(=O)O)c(=O)c2cc(F)c(N3CCNC(C)C3)c(F)c21` (stereo not drawn) [lomefloxacin], for which, under setting [2], the “PPB (fb)” value was 0.12.
For `COc1ccc2cc(CCC(C)=O)ccc2c1` [nabumetone], under setting [1], the “PPB (fb)” value is listed as 0.99.
For the compound `CO/N=C1\CN(c2nc3c(cc2F)c(=O)c(C(=O)O)cn3C2CC2)CC1CN` (stereo not drawn) [Gemifloxacin], the “PPB (fb)” value under setting [1] is on record as 0.64.
Take `COc1c(C)c2c(c(O)c1C/C=C(\C)CCC(=O)O)C(=O)OC2` [mycophenolic acid]: under setting [1], the “PPB (fb)” value was 0.96.
As for `CN1CCC(=C2c3ccccc3CC(=O)c3sccc32)CC1` [ketotifen], the “PPB (fb)” value under setting [1] is 0.8.
As for `CC1OC(OC2CC(O)(C(C)O)Cc3c(O)c4c(c(O)c32)C(=O)c2ccccc2C4=O)CC(N)C1O` (stereo not drawn) [Idarubicinol], the “PPB (fb)” value under setting [1] was 0.94.
For `COc1ccccc1OCCNCC(O)c1ccc(C)c(S(N)(=O)=O)c1` (stereo not drawn) [amosulalol], the “PPB (fb)” value under setting [2] is recorded as 0.98.
On to `CC(C)(S)[C@@H](N)C(=O)O` [penicillamine], for which the “PPB (fb)” value under setting [1] is listed as 0.8.
Regarding `NNC(=O)c1ccncc1` [Isoniazid], the “PPB (fb)” value under setting [3] is reported as 0.01.
As to `C[C@H](N[C@@H](CCc1ccccc1)C(=O)O)C(=O)N1CCC[C@H]1C(=O)O` [Enalaprilat], the “PPB (fb)” value under setting [2] is listed as 0.46.
On to `Cc1ccc(C(=O)c2ccc(CC(=O)O)n2C)cc1` [tolmetin], for which the “PPB (fb)” value under setting [3] is given as 0.99.
`CCN[C@H]1C[C@H](C)S(=O)(=O)c2sc(S(N)(=O)=O)cc21` [dorzolamide]: the “PPB (fb)” value under setting [2] was 0.3.
With `CNC[C@H](O)c1cccc(O)c1` [phenylephrine], the “PPB (fb)” value under setting [2] is reported as 0.51.
